# Measured values reported in US20170191038A1, “TGFß SIGNALING INDEPENDENT NAÏVE INDUCED PLURIPOTENT STEM CELLS, METHODS OF MAKING AND USE” (HONG GUAN Ltd., priority 2014, published 2017).
# Where a name gives a salt, the structure may show the parent alone.
# Columns and labels:
# Format in all cases: cell-based, rhesus monkey (Macaca mulatta)
# [1] = tested on: Rhesus monkey primed iPSCs; assay: Conversion of rhesus monkey primed iPSCs to naive iPSCs (conversion condition optimization, TRA-1-81/TBX3 double-positive dome-shaped colonies); conditions: for effect on pluripotency / dome-shaped colony formation during naive conversion: primed iPSCs under 2i/LIF-based conditions, Y27632 10 μM, GÖ6983 5 μM
# Protocol: Rhesus monkey primed iPSCs were dissociated into single cells by accutase and reseeded on feeder cells. The converting medium with 4 ng/ml bFGF (R&D Systems), 10 ng/ml human LIF (Millipore), CHIR99021 (3 μM; Stemgent) and PD0325901 (0.5 μM; Stemgent) was changed daily. At approximately day 7 to day 10, dome-shaped colonies were selected and transferred onto fresh feeder cells. Traditional 2i/LIF conditions—10 ng/ml human LIF (Millipore), CHIR99021 (3 μM; Stemgent) and PD0325901 (0.5 μM; Stemgent) were also tested and served as negative control. • (c) Conversion Condition Optimization for Rhesus Monkey Naïve iPSCs
# Rhesus monkey primed iPSCs were dissociated into single cells by accutase and reseeded on feeder cells. The basal culture medium with 4 ng/ml bFGF (R&D Systems), 10 ng/ml human LIF (Millipore), CHIR99021 (3 μM; Stemgent) and PD0325901 (0.5 μM; Stemgent) was changed daily. The small molecules tested for culture condition optimization were SB203580 (10 μM; Tocris), SP600125 (10 μM; Tocris), Y27632 (10 μM; Tocris) and GÖ6983 (5 μM; Tocris). After treatment for 8 days, cells were fixed and immunostained for TRA-1-81.
# (§1) To detect ALP activity the cells were washed with phosphate-buffered saline three times and stained with BCIP/NBT (Promega) for 15 min. For immunofluorescence, the primary antibodies included those against SSEA-1 (1:50, Chemicon), SSEA-4 (1:20, Santa Cruz Biotechnology), TRA-1-60 (1:50, Santa Cruz Biotechnology), TRA-1-81 (1:50, Santa Cruz Biotechnology), NANOG (1:100, R&D Systems), TBX3 (1:200, Abcam), H3K27me3 (1:200, Millipore), GATA4 (1:200, Santa Cruz Biotechnology), OCT4 (1:200, Abcam) and SOX2 (1:200, Santa Cruz Biotechnology). The secondary antibodies were rhodamine-labeled donkey anti-mouse IgG (1:100, Santa Cruz Biotechnology), rhodamine-labeled donkey anti-rabbit IgG (1:100, Santa Cruz Biotechnology), rhodamine-labeled goat anti-mouse IgM (1:100, Santa Cruz Biotechnology) and rhodamine-labeled donkey anti-goat IgG (1:100, Santa Cruz Biotechnology). DAPI (Roche Applied Science) was used for nuclear staining.
# [2] = tested on: Rhesus monkey naïve iPSCs; assay: Signaling analysis of rhesus monkey naïve iPSCs (TRA-1-81-positive dome-shaped colonies); conditions: optimized conversion conditions; 5 days; Stattic 1 μM, SB431542 10 μM, SU5402 2 μM, TGF-β1 2 ng/ml
# Protocol: (§2) Rhesus monkey primed iPSCs were maintained as described (Liu H et al., 2008). […] The tested signaling modulators were SU5402 (2 μM; Tocris), SB431542 (10 μM; Tocris), Stattic (1 μM; Tocris) and TGF-β1 (2 ng/ml, Peprotech). After treatment for 5 days, cells were fixed and immunostained for TRA-1-81.
# as §1
# [3] = tested on: Rhesus monkey primed iPSCs; assay: Signaling analysis of rhesus monkey primed iPSCs (TRA-1-81-positive colonies); conditions: hESCs medium; 5 days; Stattic 1 μM, SB431542 10 μM, SU5402 2 μM, TGF-β1 2 ng/ml
# Protocol: as §2, §1
Molecule,effect on pluripotency / dome-shaped colony formation during naive conversion [1],"self-renewal / pluripotency maintenance of naive iPSCs (TRA-1-81-positive dome-shaped colonies, words) [2]","self-renewal / pluripotency maintenance of primed iPSCs (TRA-1-81-positive colonies, words) [3]","conversion efficiency (TRA-1-81/TBX3 double-positive and dome-shaped colonies of total colonies) ([1]; bFGF (4 ng/ml) added to 2i/LIF conditions, primed iPSCs)"
"COc1ccc2c(c1)c(C1=C(c3c[nH]c4ccccc34)C(=O)NC1=O)cn2CCCN(C)C [GO{umlaut over ( )} 6983, 3-[1-[3-(Dimethylamino)propyl]-5-methoxy-1H-indol-3-yl]-4-(1H-indol-3-yl)-1H-pyrrole-2,5-dione]",induced pronounced differentiation and reduced TRA-1-81 expression in the colonies,–,–,–
O=[N+]([O-])c1ccc2c(c1)S(=O)(=O)C=C2 [JAK/STAT3 inhibitor],–,readily differentiated with greatly reduced expression of TRA-1-81,maintained their pluripotent properties,–
"O=C(NOC[C@H](O)CO)c1ccc(F)c(F)c1Nc1ccc(I)cc1F [PD0325901, N-[(2R)-2,3-Dihydroxypropoxy]-3,4-difluoro-2-[(2-fluoro-4-iodophenyl)amino]-benzamide]",essential for conversion and maintenance of TBX3/TRA-1-81 double-positive dome-shaped colonies,–,–,–
NC(=O)c1ccc(-c2nc(-c3ccccn3)c(-c3ccc4c(c3)OCO4)[nH]2)cc1 [SB431542],–,no effect on rhesus monkey naive iPSCs,devastating to primed iPSCs self-renewal,–
Cc1c[nH]c(/C=C2\C(=O)Nc3ccccc32)c1CCC(=O)O [SU5402],–,few TRA-1-81-positive colonies formed,few TRA-1-81-positive colonies formed,–
"C[C@@H](N)[C@H]1CC[C@H](C(=O)Nc2ccncc2)CC1 [Y27632, (+)-(R)-trans-4-(1-aminoethyl)-N-(4-pyridyl)cyclohexanecarboxamide+++dihydrochloride]",induced pronounced differentiation and reduced TRA-1-81 expression in the colonies,–,–,–
"TGF-β: transforming growth factor-β1 (2 ng/ml, Peprotech)",–,devastating to the self-renewal of naïve iPSCs,–,–
"bFGF: recombinant basic fibroblast growth factor, protein factor",Dome-shaped colonies morphologically similar to mouse ESCs appeared,–,–,8%-10%
